Data as given in patent publication US12599137B2, “Composition for the drying of Tillandsia sp” (priority 2021, dated 2026).

Test system: Tillandsia sp
Assay: Sampler of 49 cells, each with one specimen of each Tillandsia species, photographic follow-up every 5 days for 30 days
Format: in vivo, Tillandsia aeranthos and Tillandsia recurvata
Excerpt: Next, we proceeded to form a sampler consisting of a base on which a series of wooden slats separated at parallel intervals were placed, to which perpendicular slats were crossed, achieving a plurality of cells for a total of 49 flat cells. One specimen of Tillandsia aeranthos and one of Tillandsia recurvata were placed inside each cell. Each box was designated with a sequential number from No. 1 to No. 49 and a photographic follow-up was taken every 5 days for a total of 30 days.

## Cc1c(C(=O)O)c(O)cc2c1C(=O)c1c(O)c([C@@H]3O[C@H](CO)[C@@H](O)[C@H](O)[C@H]3O)c(O)c(O)c1C2=O [carminic acid]
Conclusions on sampler box tests
  dehydration result of Tillandsia sp, summary in words: does not dehydrate

## O=C([O-])O.[Na+] [sodium bicarbonate]
From Examples 3 to 7, FIG. 1
  optimum concentration of the active ingredient in water: 0.07 g/mL
